Data as given in ChEMBL document CHEMBL1201862, “PubChem BioAssay data set” (2004).
The source made the active and inactive calls.

Experiments:
[1] = P. falciparum late gametocyte killing, dose response, luminescence (AID 1117278); format: functional, cell-based;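 note: gametocytes exposed to compound for 24 hours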
[2] = Jurkat T cell cytotoxicity, dose response, cytotoxicity control for P. falciparum gametocyte viability project, luminescence (AID 1117277); format: functional, cell-based;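 note: potency reflects loss of cellular ATP meaning fewer viable cells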
[3] = Artemis endonuclease inhibitor potency, dose response, biochemical, fluorescence intensity (AID 720701); format: functional;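 note: Artemis endonuclease enzyme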
[4] = NIH-3T3 fibroblast cytotoxicity, dose response, cytotoxicity control, cell-based, fluorescence, Alamar Blue, secondary assay (AID 2327); format: functional;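 note: NIH-3T3 mouse fibroblasts cultured with fluconazole at 8 µg/mL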
[5] = molecular target: T1, RNA-binding protein pos-1 (Caenorhabditis elegans, UniProt G5EF15); assay: inhibitors of POS-1/mex-3 RNA binding, dose response, biochemical, fluorescence polarization (AID 1964);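 note: purified POS-1 fused to maltose binding protein made in E. coli; potency of compounds blocking POS-1 binding to fluorescent RNA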
T1 sequence (G5EF15 whole entry): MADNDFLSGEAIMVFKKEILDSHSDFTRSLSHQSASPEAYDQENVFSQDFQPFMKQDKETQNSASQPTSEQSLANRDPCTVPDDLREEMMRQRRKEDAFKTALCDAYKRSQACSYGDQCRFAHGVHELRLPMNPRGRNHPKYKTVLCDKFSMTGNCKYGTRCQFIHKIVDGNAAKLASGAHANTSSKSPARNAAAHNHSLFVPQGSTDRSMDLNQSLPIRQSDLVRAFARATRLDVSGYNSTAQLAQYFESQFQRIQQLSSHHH

[6] = molecular target: T2, Zinc finger protein mex-5 (Caenorhabditis elegans, UniProt Q9XUB2); assay: MEX-5/TCR-2 RNA interaction inhibitors, dose response, biochemical, C. elegans, fluorescence polarization (AID 1960)
T2 sequence (Q9XUB2 whole entry): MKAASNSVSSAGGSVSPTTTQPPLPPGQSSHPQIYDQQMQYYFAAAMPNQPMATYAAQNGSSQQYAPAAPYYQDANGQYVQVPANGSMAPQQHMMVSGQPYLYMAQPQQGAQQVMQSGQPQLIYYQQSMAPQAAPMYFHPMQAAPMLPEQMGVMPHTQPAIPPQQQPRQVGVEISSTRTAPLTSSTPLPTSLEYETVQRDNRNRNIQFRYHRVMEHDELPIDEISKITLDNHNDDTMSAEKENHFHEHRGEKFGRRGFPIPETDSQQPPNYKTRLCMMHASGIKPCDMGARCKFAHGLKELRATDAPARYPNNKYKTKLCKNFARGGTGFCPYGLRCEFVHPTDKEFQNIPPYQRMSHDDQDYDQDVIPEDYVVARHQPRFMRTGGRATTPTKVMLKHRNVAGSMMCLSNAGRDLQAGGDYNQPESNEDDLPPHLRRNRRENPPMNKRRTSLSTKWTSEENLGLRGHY

[7] = C. albicans growth with fluconazole, confirmation, fluorescence, retest (AID 2467); format: functional, cell-based
[8] = inhibitors of intracellular T. cruzi replication, confirmation, NIH3T3 host cells, beta-gal luminescence (AID 2044); format: functional, cell-based;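 note: intracellular parasites grown in NIH/3T3 mouse fibroblasts as host cells; luminescent beta-galactosidase reporter signal from transgenic T. cruzi replicating inside host cells; inhibitors lower the luminescence signal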
[9] = cytotoxicity toward NIH3T3 fibroblasts, dose response, counter-screen, cell-based, ATP luminescence, mouse fibroblasts (AID 2010); format: functional;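 note: cells exposed to compound for about 90 hours before reading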
[10] = molecular target: T3, Endoribonuclease toxin MazF (Escherichia coli K-12, UniProt P0AE70); assay: MazF toxin RNase activators, dose response, biochemical, fluorescence, single-stranded RNA substrate, uHTS hits (AID 588481); format: functional
T3 sequence (P0AE70 whole entry): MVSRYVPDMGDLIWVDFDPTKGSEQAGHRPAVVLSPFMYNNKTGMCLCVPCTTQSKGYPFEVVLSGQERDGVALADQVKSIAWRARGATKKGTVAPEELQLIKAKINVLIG

[11] = molecular target: T3, Endoribonuclease toxin MazF; assay: fluorescent RNA oligo signal without MazF, dose response, counter-screen for MazEF activator project, biochemical, fluorescence, single-stranded RNase substrate (AID 588502); format: functional
[12] = molecular target: T4, Corticotropin-releasing factor receptor 2/Corticotropin-releasing factor-binding protein (Homo sapiens, UniProt P24387+Q13324); assay: activators of CRF receptor 2 with binding protein – uHTS hits, confirmation (AID 602473); format: functional; conditions: read-out: EC50_Mean
T4 sequence (Q13324 whole entry): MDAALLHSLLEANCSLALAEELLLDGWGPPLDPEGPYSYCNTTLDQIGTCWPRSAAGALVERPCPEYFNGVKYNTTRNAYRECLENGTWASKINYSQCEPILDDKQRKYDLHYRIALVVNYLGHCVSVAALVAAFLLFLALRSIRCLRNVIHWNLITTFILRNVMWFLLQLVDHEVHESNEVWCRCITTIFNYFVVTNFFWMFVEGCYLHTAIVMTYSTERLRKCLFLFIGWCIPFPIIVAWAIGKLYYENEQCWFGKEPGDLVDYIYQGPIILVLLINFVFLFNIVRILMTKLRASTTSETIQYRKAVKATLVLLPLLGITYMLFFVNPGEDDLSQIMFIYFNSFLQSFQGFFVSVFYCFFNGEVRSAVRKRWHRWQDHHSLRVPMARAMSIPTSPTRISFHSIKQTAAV
T4 sequence (P24387 whole entry): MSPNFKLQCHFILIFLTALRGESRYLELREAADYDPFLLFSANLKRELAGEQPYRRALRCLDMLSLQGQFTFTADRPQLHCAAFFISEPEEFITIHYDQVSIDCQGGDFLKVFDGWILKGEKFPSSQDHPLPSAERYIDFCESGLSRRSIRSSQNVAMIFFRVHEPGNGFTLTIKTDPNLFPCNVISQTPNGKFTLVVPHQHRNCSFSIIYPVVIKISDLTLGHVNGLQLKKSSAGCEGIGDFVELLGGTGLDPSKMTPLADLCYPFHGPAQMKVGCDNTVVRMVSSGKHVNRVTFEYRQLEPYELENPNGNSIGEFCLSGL

[13] = THP-1 cell cytotoxicity, dose response, cytotoxicity control for Vif-APOBEC3G degradation inhibitor project, THP-1 cells (AID 1117359); format: functional; conditions: Human immunodeficiency virus 1, THP-1
[14] = molecular target: T5, Tyrosine-protein phosphatase non-receptor type 7 (Homo sapiens, UniProt P35236); assay: inhibitors of human HePTP phosphatase, […], biochemical, absorbance, leukemia target (AID 521); format: functional
T5 sequence (P35236 whole entry): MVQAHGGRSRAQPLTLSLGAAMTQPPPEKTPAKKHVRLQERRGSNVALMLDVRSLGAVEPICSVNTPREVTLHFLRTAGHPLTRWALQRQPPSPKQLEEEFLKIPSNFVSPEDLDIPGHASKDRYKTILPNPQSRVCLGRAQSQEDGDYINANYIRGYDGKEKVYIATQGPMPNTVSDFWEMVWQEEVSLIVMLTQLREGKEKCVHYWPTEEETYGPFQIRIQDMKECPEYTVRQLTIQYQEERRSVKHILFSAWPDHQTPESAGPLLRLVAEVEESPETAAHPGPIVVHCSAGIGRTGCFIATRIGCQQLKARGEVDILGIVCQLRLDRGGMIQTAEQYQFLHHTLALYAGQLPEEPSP

[15] = molecular target: Mitogen-activated protein kinase 10 (Homo sapiens, UniProt P53779); assay: Dose response biochemical screening assay for inhibitors of c-Jun N-Terminal Kinase 3 (JNK3). [Related pubchem assays: 746 ]
[16] = P. falciparum 3D7-ScDHODH growth inhibitors, dose response, SYBR Green, dry powder samples (AID 1159570); format: functional, cell-based;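 note: parasite growth measured after 72 hours of compound exposure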
[17] = P. falciparum Dd2 growth inhibitors, dose response, SYBR Green, cherry-picked samples (AID 1159567); format: functional, cell-based
[18] = P. falciparum Dd2 growth inhibitors, dose response, SYBR Green, dry powder samples (AID 1159566); format: functional, cell-based;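 note: potency for growth inhibition with lower SYBR green DNA signal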
[19] = P. falciparum ATP4 D1247Y mutant growth inhibitors, dose response, NITD609-resistant line, SYBR Green, dry powder (AID 1159571); format: functional, cell-based;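 note: parasites synchronized at ring stage by sorbitol before testing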
Large T antigen = Large T antigen (Simian virus 40, UniProt P03070); format: functional, Betapolyomavirus macacae;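 note: Confirmatory-stage PubChem screen for compounds that inhibit SV40 T antigen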
[20] = molecular target: T6, Replicative DNA helicase DnaB (Mycobacterium tuberculosis, UniProt P9WMR3); assay: DnaB intein splicing inhibitors, dose response, biochemical, cell-free fluorescence (AID 449749); format: functional
T6 sequence (P9WMR3 whole entry): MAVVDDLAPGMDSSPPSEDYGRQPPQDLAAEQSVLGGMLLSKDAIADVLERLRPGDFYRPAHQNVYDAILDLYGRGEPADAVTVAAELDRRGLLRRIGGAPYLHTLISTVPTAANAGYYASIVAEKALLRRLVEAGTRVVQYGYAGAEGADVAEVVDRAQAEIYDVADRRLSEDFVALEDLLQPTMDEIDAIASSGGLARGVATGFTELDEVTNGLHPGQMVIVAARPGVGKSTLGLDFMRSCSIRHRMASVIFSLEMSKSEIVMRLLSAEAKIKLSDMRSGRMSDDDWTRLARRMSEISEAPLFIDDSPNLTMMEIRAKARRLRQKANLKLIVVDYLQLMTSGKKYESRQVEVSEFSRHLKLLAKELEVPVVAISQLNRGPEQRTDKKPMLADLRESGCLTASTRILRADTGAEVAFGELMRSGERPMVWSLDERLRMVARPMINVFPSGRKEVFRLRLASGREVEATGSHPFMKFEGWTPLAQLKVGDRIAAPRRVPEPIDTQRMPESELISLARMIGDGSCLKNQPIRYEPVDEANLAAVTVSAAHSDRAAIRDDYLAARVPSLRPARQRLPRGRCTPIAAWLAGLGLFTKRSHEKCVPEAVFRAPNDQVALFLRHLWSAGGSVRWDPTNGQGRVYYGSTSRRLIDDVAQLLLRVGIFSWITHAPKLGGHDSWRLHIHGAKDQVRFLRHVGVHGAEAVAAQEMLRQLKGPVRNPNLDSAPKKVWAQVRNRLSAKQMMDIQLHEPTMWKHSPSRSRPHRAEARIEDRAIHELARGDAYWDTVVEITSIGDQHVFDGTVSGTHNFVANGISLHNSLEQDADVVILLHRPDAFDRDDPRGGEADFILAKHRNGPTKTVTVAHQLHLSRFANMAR

Protein RecA = molecular target: T7, Protein RecA (Mycobacterium tuberculosis, UniProt P9WHJ3); assay: Fluorescence Cell-Free Homogeneous Dose Retest to Identify Inhibitors of RecA-Intein Splicing Activity. [Related pubchem assays (depositor defined):AID2097, AID2223, AID489010, AID492950]; format: functional
T7 sequence (P9WHJ3 whole entry): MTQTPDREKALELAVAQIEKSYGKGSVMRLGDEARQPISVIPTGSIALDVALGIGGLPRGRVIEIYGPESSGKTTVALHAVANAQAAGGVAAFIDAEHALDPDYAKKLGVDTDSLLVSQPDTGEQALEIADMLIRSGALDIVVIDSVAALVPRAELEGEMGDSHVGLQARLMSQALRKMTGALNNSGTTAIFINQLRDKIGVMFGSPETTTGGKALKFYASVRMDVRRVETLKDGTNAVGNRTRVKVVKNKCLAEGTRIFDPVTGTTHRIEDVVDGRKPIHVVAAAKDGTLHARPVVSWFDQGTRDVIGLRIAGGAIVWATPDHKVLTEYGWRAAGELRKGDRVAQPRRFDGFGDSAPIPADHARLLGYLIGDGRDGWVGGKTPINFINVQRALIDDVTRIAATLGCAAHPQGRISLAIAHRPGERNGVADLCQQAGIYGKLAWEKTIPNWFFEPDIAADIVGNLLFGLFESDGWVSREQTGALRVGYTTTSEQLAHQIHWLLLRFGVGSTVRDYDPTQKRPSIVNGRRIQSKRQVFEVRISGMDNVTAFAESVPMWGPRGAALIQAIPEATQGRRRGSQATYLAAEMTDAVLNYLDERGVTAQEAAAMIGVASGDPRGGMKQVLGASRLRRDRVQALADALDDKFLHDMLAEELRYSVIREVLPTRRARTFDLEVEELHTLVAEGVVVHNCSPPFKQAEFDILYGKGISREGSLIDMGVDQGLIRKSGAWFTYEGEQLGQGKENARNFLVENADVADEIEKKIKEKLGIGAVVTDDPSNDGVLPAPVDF

BJ [21] = assay: cytotoxicity toward BJ-TERT fibroblasts, dose response, cell-based, RAS-independent, luminescence (AID 1933); format: functional; conditions: Homo sapiens
BJ [22] = assay: cells; format: functional, cell-based; conditions: Homo sapiens
BJ [23] = assay: cytotoxicity toward BJ-TERT-LT-ST fibroblasts, dose response, cell-based, RAS-independent, luminescence (AID 1935); format: functional; conditions: Homo sapiens;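 note: BJ fibroblasts immortalized with TERT plus LT and ST oncogenes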
[24] = cytotoxicity toward DRD oncogenic fibroblasts, dose response, cell-based, non-viral oncogenic, luminescence (AID 1934); format: functional; conditions: Homo sapiens

Mitogen-activated protein kinase 10, sequence (P53779 whole entry): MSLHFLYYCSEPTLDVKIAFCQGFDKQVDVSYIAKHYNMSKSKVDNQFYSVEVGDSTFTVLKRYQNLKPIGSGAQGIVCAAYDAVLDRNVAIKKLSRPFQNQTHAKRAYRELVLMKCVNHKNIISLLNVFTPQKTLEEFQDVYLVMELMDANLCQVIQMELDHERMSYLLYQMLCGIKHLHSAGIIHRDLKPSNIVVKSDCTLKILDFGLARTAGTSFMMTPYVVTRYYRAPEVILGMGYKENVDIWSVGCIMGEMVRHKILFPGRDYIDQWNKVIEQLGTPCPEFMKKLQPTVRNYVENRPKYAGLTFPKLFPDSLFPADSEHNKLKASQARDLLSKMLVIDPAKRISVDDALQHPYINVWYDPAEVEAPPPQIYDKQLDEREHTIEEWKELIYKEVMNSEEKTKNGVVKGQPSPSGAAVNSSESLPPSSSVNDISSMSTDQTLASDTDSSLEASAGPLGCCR
Large T antigen, sequence (P03070 whole entry): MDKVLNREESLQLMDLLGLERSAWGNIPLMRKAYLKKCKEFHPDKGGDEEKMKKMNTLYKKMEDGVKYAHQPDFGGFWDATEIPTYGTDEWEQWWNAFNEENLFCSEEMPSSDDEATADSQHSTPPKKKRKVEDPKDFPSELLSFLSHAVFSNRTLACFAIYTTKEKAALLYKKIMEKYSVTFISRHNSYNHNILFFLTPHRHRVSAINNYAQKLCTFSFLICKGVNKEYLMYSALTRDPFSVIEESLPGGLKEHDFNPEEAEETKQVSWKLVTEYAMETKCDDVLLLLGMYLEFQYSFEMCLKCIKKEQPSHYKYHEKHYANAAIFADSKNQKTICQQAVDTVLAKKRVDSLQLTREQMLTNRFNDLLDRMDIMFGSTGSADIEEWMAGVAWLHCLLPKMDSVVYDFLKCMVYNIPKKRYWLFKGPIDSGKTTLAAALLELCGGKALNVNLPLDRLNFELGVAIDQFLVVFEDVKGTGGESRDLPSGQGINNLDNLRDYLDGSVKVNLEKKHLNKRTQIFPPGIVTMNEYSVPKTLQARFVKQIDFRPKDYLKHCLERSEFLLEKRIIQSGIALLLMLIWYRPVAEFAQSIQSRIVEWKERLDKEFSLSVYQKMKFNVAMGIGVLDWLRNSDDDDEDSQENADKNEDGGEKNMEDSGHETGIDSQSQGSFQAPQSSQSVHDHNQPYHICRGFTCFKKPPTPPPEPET

## CCCc1ccc(OCCNC(=O)CC)cc1
[1]
  IC50: > 109 µM (inactive)
[2]
  IC50: > 83.4 µM (inactive)

## CC(=O)N(/N=C1\Sc2ccccc2C1=O)c1ccccc1
[3]
  IC50: 6.46 µM (active)

## CCN(CC)c1ccc(/N=C/c2ccc(N(CC)CC)cc2O)cc1
[4]
  EC50: 147 µM (inconclusive)
[5]
  EC50: > 300 µM (not active)
[6]
  EC50: > 300 µM (not active)
[7]
  EC50: > 38 µM (not active)
[8]
  EC50: 3.25 µM (active)
[9]
  EC50: > 60 µM (not active)
[10]
  EC50: > 99 µM (inactive)
[11]
  EC50: > 99 µM (inactive)
[12]
  EC50: 4.26 µM (active)
[13]
  CC50: > 40 µM (active)

## CNC(=O)C1=NCCCc2cc(OC)c(OC)cc21
[14]
  IC50: > 100 µM (not active)

## COc1ccccc1CNC(=O)Nc1cccs1
[14]
  IC50: > 100 µM (not active)

## N#Cc1sc2nc3c(c(-c4ccco4)c2c1N)CCCC3
[15]
  IC50: 68.6 µM (not active)

## Oc1ccc2ccccc2c1/C=N/c1nc2c(s1)CCCC2
[3]
  IC50: > 20 µM (inactive)

## N#Cc1c(N)nc2c(c1-c1ccncc1)CCCCC2
[1]
  IC50: > 109 µM (inactive)
[2]
  IC50: > 83.4 µM (inactive)

## C[C@H]1CN([C@@H](C)CO)S(=O)(=O)c2ccc(-c3ccc(C#N)cc3)cc2O[C@H]1CN(C)CC1CC1
[16]
  AC50: 2.79 µM (active)
[17]
  AC50: 2.27 µM (active)
[18]
  AC50: 1.76 µM (active)
[19]
  AC50: 3.08 µM (active)

## COc1ccc(Nc2ccc(OC)cc2)cc1
Large T antigen
  IC50: 26.2 µM (active)
[20]
  AC50: 121 µM (active)
Protein RecA
  EC50: > 380 µM (inactive)
[13]
  CC50: 21 µM (active)

## CCOC(=O)c1c(-c2ccc(OC)cc2)n[nH]c1N
[15]
  IC50: 63.1 µM (not active)

## CC(=O)NC1C(=O)N=C(SCc2ccccc2)NC1=O (stereo not given)
[1]
  IC50: > 109 µM (inactive)
[2]
  IC50: > 83.3 µM (inactive)

## COc1cccc(-c2cn3nc4c(nc3n2)CCCC4)c1
BJ [21]
  EC50: 16.2 µM (active)
BJ [22]
  EC50: 21.6 µM (active)
BJ [23]
  EC50: > 150 µM (not active)
[24]
  EC50: 12.9 µM (active)
[3]
  IC50: > 20 µM (inactive)
